Values after ≈ are worked out from the molar mass of the structure shown. Read-outs that look alike come from different tables or passages of the source.
Legend:
[1] = test system: colon 26 murine tumor cells; test: Tumor growth inhibition effect on colon 26 murine tumor cells implanted mice; assay type: in vivo, SLC: CDF1 mice; details: for inhibition in vivo at 12.5 mg/kg: 12.5 mg/kg once a day; for inhibition in vivo at 3.13 mg/kg: 3.13 mg/kg once a day
Protocol: A 2% brei of colon 26 murine tumor cells was intracutaneously implanted each 0.1 ml in the abdominal part of SLC: CDF1 female mice (7 to 9 weeks old, 7 animals per one group). […] The obtained solutions were intraperitoneally (ip) administered each 0.2 ml once a day, from the day (1st day) following the implantation to the 9th day. On the 21st or 22nd day after the implantation, tumor weight was estimated from tumor diameters, and thus, the tumor growth inhibition rate (IR %) of the drug administered group in comparison with the control group was calculated according to the following equation. IR (%)=[1-{(MTW in the treated group)/(MTW in the control group)}]×10 0 MTW: mean tumor weight

Acute toxicity = details: mouse, in vivo, mice, 14th day
Protocol: Solutions of test compounds in predetermined concentrations were administered (0.1 ml/10 g body weight) to female BALB/c CrSlc mice (5 to 10 animals per one group, 10 weeks old) respectively, and, thus, LD50 values were calculated from the mortalities of the mice on the 14th day after the administration.

[2] = test system: murine P388 lymphocytic leukemia cells; test: In vitro anti-tumor activity against murine P388 lymphocytic leukemia cells (MTT, 72 h); assay type: cell-based; details: Mus musculus; murine P388 cells, 72 h, MTT; read-out: IC50 (50% proliferation inhibitory concentration)
Protocol: Test compounds were tested for anti-tumor activity according to MTT [3-(4,5-dimethylthiazol-2-yl)-2,5-diphenyltetrazolium bromide] method, using murine P388 lymphocytic leukemia cells. […] The culture medium was centrifuged (4° C., 2,000 rpm for 20 minutes), and thus, the supernatants were removed by suction. Then, 0.1 ml of dimethyl sulfoxide was put in each well to dissolve the formed formazan, and, subsequently, another 0.1 ml of dimethyl sulfoxide was added. The absorbance (OD) of each of the obtained solutions was measured by use of Multiskan Bichromatic (main wavelength 570 nm, sub-wavelength 690 nm). […] IC50 :μg/ml) were calculated by the least squares method.

[3] = test system: AZ521 human stomach cancer; test: In vitro anti-tumor activity against AZ-521 human stomach cancer (MTT); assay type: cell-based; details: AZ-521, 72 h, MTT, read-out: IC50
Protocol: (§1) A culture medium containing 500 to 2,000 human cancer cells was put in an amount of 0.1 ml in each well of 96-well plate, and the cells were cultured for 20 hours under a condition of 37° C. and 5% carbon dioxide gas in air. After the culturing, a solution of test compounds of predetermined concentration was added, and then, the cells were cultured for further 72 hours. After the culturing, an MTT (5 mg/ml) solution was added in an amount of 0.01 ml in the respective wells, and the cells were cultured for further 4 hours. The supernatants of the culture medium were removed by suction, and then, 0.1 ml of dimethyl sulfoxide was put in respective well to dissolve the formed formazan, and, moreover, 0.1 ml of dimethyl sulfoxide was added.

[4] = test system: MKN45 human stomach cancer; test: In vitro anti-tumor activity against MKN45 human stomach cancer (MTT); assay type: cell-based; details: MKN-45, MKN45, 72 h, MTT, read-out: IC50
Protocol: as §1

C33A human cervix cancer = test: In vitro anti-tumor activity against C-33A human cervix cancer (MTT); assay type: cell-based; details: C-33A, 72 h, MTT, read-out: IC50
Protocol: as §1

[5] = test system: KB human nasopharynx cancer; test: In vitro anti-tumor activity against KB human nasopharynx cancer (MTT); assay type: cell-based; details: KB, 72 h, MTT, read-out: IC50
Protocol: as §1

A427 human lung cancer = test: In vitro anti-tumor activity against A-427 human lung cancer (MTT); assay type: cell-based; details: A-427, 72 h, MTT, read-out: IC50
Protocol: as §1

[6] = test system: WiDr human colorectal cancer; test: In vitro anti-tumor activity against WiDr human colorectal cancer (MTT); assay type: cell-based; details: 72 h, MTT, read-out: IC50
Protocol: as §1

HMV2 human melanoma = test: In vitro anti-tumor activity against HMV-2 human melanoma (MTT); assay type: cell-based; details: HMV-2, 72 h, MTT, read-out: IC50
Protocol: as §1

[7] = test system: murine P388 lymphocytic leukemia cells; test: Increases in life span of mice implanted with murine P388 lymphocytic leukemia cells; assay type: in vivo, SLC: BDF1 mice; details: Mus musculus, P388, ip, 720 h, ip
Protocol: 1×10^6 murine P388 lymphocytic leukemia cells were intraperitoneally implanted in each of SLC: BDF1 mice (8 to 10 weeks old, female, 7 animals per one group). A test compound (drug) was either dissolved in 0.1 N--NaOH or suspended in 0.4% carboxymethylcellulose solution, and the resultant solution or suspension was diluted with distilled water or 0.4% carboxymethylcellulose solution so as to give predetermined concentrations for administration. The obtained solution was intraperitoneally (ip) administered twice, namely on the day following the implantation (1st day) and the 5th day, each 0.2 ml. The life and death of the mice were observed over a period of 30 days, and the median survival time (hereinafter referred to as MST) was determined for each group, and, thus, the increase in life span (ILS; %) was calculated according to the following equation:
ILS (%)=[{(MST of the test group)/(MST of the control group)}-1]×100
Drug effect was judged in the following manner, according to the criterion of U.S. National Cancer Institute (NCI):
ILS=75% or higher: ++ (remarkably effective);
20 to 74%: + (effective);
19% or lower: - (ineffective)

[8] = Mus musculus, Colon 26, 504 h, ip, days 1-9, day 21 or 22, read-out: Tumor growth inhibition rate IR (%)
[9] = NCI criterion, read-out: Evaluation
[10] = days 1 and 5, in solution, read-out: ILS (%) (in solution)
[11] = days 1 and 5, in suspension, read-out: ILS (%) (in suspension)

Compound	IC50 [2] [µg/mL]	IC50 [3] [µg/mL]	IC50 [4] [µg/mL]	IC50 (C33A human cervix cancer) [µg/mL]	IC50 [5] [µg/mL]	IC50 (A427 human lung cancer) [µg/mL]	IC50 [6] [µg/mL]	IC50 (HMV2 human melanoma) [µg/mL]	ILS at 3.13 mg/kg [7, 9] [%]	ILS at 6.25 mg/kg [7, 9] [%]	ILS at 12.5 mg/kg [7, 9] [%]	ILS at 25 mg/kg [7, 9] [%]	ILS at 50 mg/kg [7, 9] [%]	ILS at 3.13 mg/kg [7, 10] [%]	ILS at 3.13 mg/kg [7, 11] [%]	ILS at 6.25 mg/kg [7, 10] [%]	ILS at 12.5 mg/kg [7, 10] [%]	ILS at 12.5 mg/kg [7, 11] [%]	ILS at 25 mg/kg [7, 10] [%]	ILS at 50 mg/kg [7, 10] [%]	also measured
CO[C@@H]1CN(c2ccc3c(=O)c(C(=O)O)cn(-c4nccs4)c3n2)C[C@H]1N (relative stereo) [Compound 2]	0.0178 (≈ 0.0459 µM)	0.331 (≈ 0.854 µM)	0.579 (≈ 1.49 µM)	0.314 (≈ 0.81 µM)	0.309 (≈ 0.798 µM)	0.169 (≈ 0.436 µM)	1.88 (≈ 4.85 µM)	0.382 (≈ 0.986 µM)	> 75	> 75	> 75	> 75	> 75	88	63	100	125	138	213	> 275	inhibition in vivo at 12.5 mg/kg [1, 8]: 79%; LD50 at 336 h (Acute toxicity; Intraperitoneal administration (ip)): 135 mg/kg; ILS at 1.56 mg/kg [7, 9]: 20 to 74%; ILS at 1.56 mg/kg [7, 10]: 50%; ILS at 50 mg/kg [7, 11]: 238%
CN[C@@H]1CN(c2ccc3c(=O)c(C(=O)O)cn(-c4nccs4)c3n2)C[C@H]1C (relative stereo) [Compound 5]	0.0117 (≈ 0.0304 µM)	0.0433 (≈ 0.112 µM)	0.0978 (≈ 0.254 µM)	0.106 (≈ 0.275 µM)	0.0805 (≈ 0.209 µM)	0.0927 (≈ 0.24 µM)	0.218 (≈ 0.566 µM)	0.0944 (≈ 0.245 µM)	> 75	> 75	> 75	–	–	113	88	150	188	188	–	–	inhibition in vivo at 1.56 mg/kg ([1]; Mus musculus, Colon 26, 504 h, ip, 1.56 mg/kg once a day, days 1-9, day 21 or 22, read-out: Tumor growth inhibition rate IR (%)): 78%; LD50 at 336 h (Acute toxicity; Intravenous administration (iv)): 66.7 mg/kg; ILS at 1.56 mg/kg [7, 9]: 20 to 74%; ILS at 1.56 mg/kg [7, 10]: 50%
Cl.Nc1cc(N2CCC(N)C2)nc2c1c(=O)c(C(=O)O)cn2-c1nccs1 (stereo not shown) [Compound 9, 5-Amino-7-(3-amino-1-pyrrolidinyl)-1,4-dihydro-4-oxo-1-(2-thiazolyl)-1,8-naphthyridine-3-carboxylic acid hydrochloride]	0.00809	0.0625	0.148	0.151	0.106	0.1	0.412	0.211	> 75	–	> 75	–	> 75	–	100	–	–	125	–	–	inhibition in vivo at 3.13 mg/kg [1, 8]: 62%; inhibition in vivo at 6.25 mg/kg ([1]; Mus musculus, Colon 26, 504 h, ip, 6.25 mg/kg once a day, days 1-9, day 21 or 22, read-out: Tumor growth inhibition rate IR (%)): 97%; ILS at 50 mg/kg [7, 11]: 250%
CC1(N)CCN(c2ccc3c(=O)c(C(=O)O)cn(-c4nccs4)c3n2)C1 (stereo not shown) [Compound 10]	0.0192 (≈ 0.0517 µM)	0.292 (≈ 0.786 µM)	0.468 (≈ 1.26 µM)	0.247 (≈ 0.665 µM)	0.19 (≈ 0.512 µM)	0.153 (≈ 0.412 µM)	0.797 (≈ 2.15 µM)	0.386 (≈ 1.04 µM)	20 to 74	> 75	> 75	> 75	> 75	63	50	75	100	113	125	> 275	inhibition in vivo at 3.13 mg/kg [1, 8]: 74%
O=C(O)c1cn(-c2nccs2)c2nc(N3CCCC3)c(F)cc2c1=O [Compound A, reference compound]	0.0942 (≈ 0.261 µM)	0.797 (≈ 2.21 µM)	1.27 (≈ 3.52 µM)	0.651 (≈ 1.81 µM)	1.94 (≈ 5.38 µM)	0.854 (≈ 2.37 µM)	4.09 (≈ 11.3 µM)	2.88 (≈ 7.99 µM)	–	–	–	20 to 74	20 to 74	–	–	–	0	–	25	38	inhibition in vivo at 12.5 mg/kg [1, 8]: 23%; tumor growth inhibition (IR), colon 26, in words ([1]; in words): apparently inferior to the compounds of this invention in view of both doses and inhibition rates

Reference: US5817669A, “Compounds, processes for the preparation thereof and anti-tumor agents” (Dainippon Pharmaceutical Co., Ltd., priority 1994, dated 1998)
